Morbidity or mortality, signs of toxicity and frequency of IFN-γ+ P25TCRTh1 cells in the lungs of H37Rv-infected mice six hours after intravenous peptide 25 data for 3 substances are collected here from patent US20130243801A1, “EPITOPE THERAPY FOR INFECTIOUS DISEASES” (NEW YORK UNIVERSITY, priority 2010, published 2013).

Where no end group is shown, it is not given here.

The conditions of series [1]: mouse, in vivo; for signs of toxicity: iv.
For series [2], the target named is complex of peptide 25 (aa 240-254) of M. tuberculosis Ag85B and the mouse MHC II allele I-A^b (Mycobacterium tuberculosis; mouse) (UniProt P14434). In words: cell-based or functional assay.

As for “FQDAYNAAGGHNAVF [peptide 25, FQDAYNAAGGHNAVF]”, in series [1], the morbidity or mortality result is “no morbidity or mortality was observed” and the signs of toxicity entry is given as “Neither group of mice displayed any signs of toxicity”.

For “ISQAVHAAHAEINEAGR [OVA peptide, ISQAVHAAHAEINEAGR, reference compound]”, the signs of toxicity result in series [1] is given as “Neither group of mice displayed any signs of toxicity”.

In series [2], “P25TCR transgenic T-cell antigen receptor (on P25TCRTh1 CD4+ Th1 effector cells from P25TCR-Tg mice)” registered a frequency of IFN-γ+ P25TCRTh1 cells in the lungs of H37Rv-infected mice six hours after intravenous peptide 25 of 20 to 50%.
